US5495000A, “Anticoagulant peptides” (Merrell Pharmaceuticals Inc., priority 1995, dated 1996)
*1 amine or outer side, *2 acyl side, *3 side chain or, on linkers, in order; H or OH if unused. Where a SMILES comes first, the peptide text is derived from it. [ ]: non-standard residue; d: D form. Cha = N[C@@H](CC1CCCCC1)C(=O)O; Suc = O=C(CCC(=O)[*:2])[*:1]

Test system: Fibrin-Clot
Assay: Fibrin-Clot Inhibition
Format: biochemical

SMILES	IC50 [nM]
CC[C@H](C)[C@H](NC(=O)[C@H](CC(=O)O)NC(=O)[C@H](CC(=O)O)NC(=O)[C@H](CC(C)C)NC(=O)[C@@H]1CCCN1C(=O)[C@@H](Cc1ccccc1)NC(=O)[C@H](CCC(=O)O)NC(=O)[C@H](CCC(=O)O)NC(=O)[C@H](Cc1ccccc1)NC(=O)CCC(=O)O)C(=O)N[C@@H](CCC(=O)O)C(=O)N[C@@H](CCC(N)=O)C(=O)O [Example 6, Suc-Phe-Glu-Glu-phe-Pro-Leu-Asp-Asp-Ile-Glu-Gln-OH] (Suc-FEE[dF]PLDDIEQ-OH)	2300
CC(C)C[C@H](NC(=O)[C@H](CO)NC(=O)[C@H](Cc1ccccc1)NC(=O)[C@H](CCC(=O)O)NC(=O)[C@H](CCC(=O)O)NC(=O)[C@H](Cc1ccccc1)NC(=O)CCC(=O)O)C(=O)N[C@@H](CC(=O)O)C(=O)N[C@@H](CC(=O)O)C(=O)N[C@@H](CC1CCCCC1)C(=O)N[C@@H](CCC(=O)O)C(=O)N[C@@H](CCC(N)=O)C(=O)O [Example 7, Suc-Phe-Glu-Glu-Phe-Ser-Leu-Asp-Asp-Cha-Glu-Gln-OH] (Suc-FEEFSLDD[Cha]EQ-OH)	7100
CC[C@H](C)[C@H](NC(=O)[C@H](CC(=O)O)NC(=O)[C@H](CC(=O)O)NC(=O)[C@H](CC(C)C)NC(=O)[C@H](CO)NC(=O)[C@H](Cc1ccccc1)NC(=O)[C@@H]1CCCN1C(=O)[C@H](CCC(=O)O)NC(=O)[C@H](Cc1ccccc1)NC(=O)CCC(=O)O)C(=O)N[C@@H](CCC(=O)O)C(=O)N[C@@H](CCC(N)=O)C(=O)O [Example 5, Suc-Phe-Glu-Pro-Phe-Ser-Leu-Asp-Asp-Ile-Glu-Gln-OH] (Suc-FEPFSLDDIEQ-OH)	1800
CC[C@H](C)[C@H](NC(=O)[C@H](CC(=O)O)NC(=O)[C@H](CC(=O)O)NC(=O)[C@H](CC(C)C)NC(=O)[C@H](CO)NC(=O)[C@H](Cc1ccccc1)NC(=O)[C@H](CCC(=O)O)NC(=O)[C@H](CCC(=O)O)NC(=O)[C@H](Cc1ccccc1)NC(=O)CCC(=O)O)C(=O)N[C@@H](CCC(=O)O)C(=O)N[C@@H](CCC(N)=O)C(=O)O [Example 4, Suc-Phe-Glu-Glu-Phe-Ser-Leu-Asp-Asp-Ile-Glu-Gln-OH] (Suc-FEEFSLDDIEQ-OH)	2700
